Tests used:
PC-3 = test: Cytotoxicity against human PC3 cells assessed as inhibition of cell proliferation after 72 hrs by sulforhodamine B assay; assay type: functional, cell-based; conditions: PC-3, 72 h
MDA-MB-231 = test: Cytotoxicity against human MDA-MB-231 cells assessed as inhibition of cell proliferation after 72 hrs by sulforhodamine B assay; assay type: functional, cell-based; conditions: MDA-MB-231, 72 h
[1] = Cytotoxicity against human SKHEP1 cells assessed as inhibition of cell proliferation after 72 hrs by sulforhodamine B assay; assay type: functional, cell-based; conditions: SK-HEP1, 72 h
HCT-116 = test: Cytotoxicity against human HCT116 cells assessed as inhibition of cell proliferation after 72 hrs by sulforhodamine B assay; assay type: functional, cell-based; conditions: HCT-116, 72 h
A549 = test: Cytotoxicity against human A549 cells assessed as inhibition of cell proliferation after 72 hrs by sulforhodamine B assay; assay type: functional, cell-based; conditions: A549, 72 h
[2] = Cytotoxicity against human SNU638 cells assessed as inhibition of cell proliferation after 72 hrs by sulforhodamine B assay; assay type: functional, cell-based; conditions: SNU-638, 72 h
Adenosylhomocysteinase = Adenosylhomocysteinase (Homo sapiens, UniProt P23526); test: Inhibition of recombinant human placental AdoHcy hydrolase expressed in Escherichia coli BL21 using AdoHcy as substrate preincubated for 10 mins followed by substrate addition measured after 20 mins by DTNB coupled assay
Adenosylhomocysteinase, sequence (P23526 whole entry): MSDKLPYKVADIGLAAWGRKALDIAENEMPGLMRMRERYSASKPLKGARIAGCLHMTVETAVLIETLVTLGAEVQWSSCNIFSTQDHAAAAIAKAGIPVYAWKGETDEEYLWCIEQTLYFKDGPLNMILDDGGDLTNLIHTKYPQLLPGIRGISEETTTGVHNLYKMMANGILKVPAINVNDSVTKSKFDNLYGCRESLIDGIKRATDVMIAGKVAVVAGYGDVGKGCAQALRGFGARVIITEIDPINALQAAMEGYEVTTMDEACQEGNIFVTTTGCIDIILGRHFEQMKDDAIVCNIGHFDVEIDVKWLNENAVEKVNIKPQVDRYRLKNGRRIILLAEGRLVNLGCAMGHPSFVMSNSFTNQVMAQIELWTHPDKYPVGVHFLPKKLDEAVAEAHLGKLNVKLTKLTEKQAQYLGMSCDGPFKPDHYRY

[3] = Cytotoxicity against CB1 cells (unknown origin) assessed as cell viability up to 100 uM after 3 days by MTT assay; assay type: cell-based; conditions: cb1, 72 h
Picornaviridae = test: Antiviral activity against picornavirus infected in CB1 cells assessed as inhibition of viral replication after 3 days by MTT assay; assay type: functional, organism-based; conditions: CB1, 72 h
HeLa = test: Cytotoxicity against human HeLa cells assessed as cell viability up to 40 uM after 3 days by MTT assay; assay type: cell-based; conditions: 72 h
[4] = tested on: Vesicular stomatitis virus; test: Antiviral activity against vesicular stomatitis virus infected in human HeLa cells assessed as inhibition of viral replication after 3 days by MTT assay; assay type: functional, organism-based; conditions: 72 h

Nc1ccn([C@@H]2O[C@H](CO)[C@@H](O)[C@@H]2O)c(=O)n1 [CYTARABINE]
IC50 (PC-3): 50.5 µM | IC50 (MDA-MB-231): 1370 nM | IC50 [1]: 2.12 µM | IC50 (HCT-116): 2420 nM | IC50 (A549): 1.2 µM | IC50 [2]: 3980 nM

OCC1=C[C@@H](n2ccc3c(O)ncnc32)[C@H](O)[C@@H]1O
IC50 (PC-3): > 100 µM | IC50 (Adenosylhomocysteinase): > 100 µM | IC50 (MDA-MB-231): > 100000 nM | IC50 [1]: > 100 µM | IC50 (HCT-116): > 100000 nM | IC50 (A549): > 100 µM | IC50 [2]: > 100000 nM

Nc1nccc2c1ncn2[C@@H]1C=C(CCO)[C@@H](O)[C@H]1O
IC50 (PC-3): > 100 µM | IC50 (Adenosylhomocysteinase): 3.76 µM | IC50 (MDA-MB-231): 8010 nM | IC50 [1]: 28.9 µM | IC50 (HCT-116): 17900 nM | IC50 (A549): 76.5 µM | IC50 [2]: 28200 nM

OCC1=C(F)[C@@H](n2ccc3c(O)ncnc32)[C@H](O)[C@@H]1O
IC50 (PC-3): > 100 µM | IC50 (Adenosylhomocysteinase): > 100 µM | IC50 (MDA-MB-231): > 100000 nM | IC50 [1]: > 100 µM | IC50 (HCT-116): > 100000 nM | IC50 (A549): > 100 µM | IC50 [2]: > 100000 nM

Nc1ncnc2c1ncn2[C@@H]1C=C(CCO)[C@@H](O)[C@H]1O
IC50 (PC-3): > 100 µM | IC50 (MDA-MB-231): 2640 nM | IC50 [1]: 6.12 µM | IC50 (HCT-116): 1720 nM | IC50 (A549): 8.95 µM | IC50 [2]: 2310 nM

Nc1ncnc2c1ccn2C1C=C(CO)[C@@H](O)[C@H]1O (single isomer, unassigned) [DEAZANEPLANOCIN A]
IC50 (PC-3): 1.62 µM | IC50 (Adenosylhomocysteinase): > 100 µM | IC50 (MDA-MB-231): 790 nM | IC50 [1]: 1.17 µM | IC50 (HCT-116): 10400 nM | IC50 (A549): 1.84 µM | IC50 [2]: 1200 nM

Nc1ncnc2c1ccn2[C@@H]1C(F)=C(CO)[C@@H](O)[C@H]1O
IC50 (PC-3): 1.3 µM | IC50 (Adenosylhomocysteinase): > 100 µM | Activity [3]: Non-toxic | IC50 (MDA-MB-231): 940 nM | EC50 (Picornaviridae): 2340 nM | IC50 [1]: 1.39 µM | IC50 (HCT-116): 940 nM | IC50 (A549): 16.8 µM | IC50 [2]: 960 nM

Nc1ncnc2c1ncn2[C@@H]1C(F)=C(CO)[C@@H](O)[C@H]1O [FLUORO-NEPLANOCIN A]
IC50 (PC-3): 1.4 µM | IC50 (Adenosylhomocysteinase): 0.24 µM | Activity (HeLa): Non-toxic | IC50 (MDA-MB-231): 1400 nM | IC50 [1]: 0.8 µM | IC50 (HCT-116): 2800 nM | IC50 (A549): 1.2 µM | EC50 [4]: 430 nM | IC50 [2]: 2200 nM

COc1cc([C@@H]2c3cc4c(cc3[C@@H](O[C@@H]3O[C@@H]5CO[C@@H](C)O[C@H]5[C@H](O)[C@H]3O)[C@H]3COC(=O)[C@H]23)OCO4)cc(OC)c1O [ETOPOSIDE]
IC50 (MDA-MB-231): 7700 nM | IC50 [1]: 2.8 µM | IC50 (A549): 0.4 µM | IC50 [2]: 300 nM

CNc1ncnc2c1ccn2[C@@H]1C(F)=C(CO)[C@@H](O)[C@H]1O
IC50 (PC-3): > 100 µM | IC50 (Adenosylhomocysteinase): > 100 µM | IC50 (MDA-MB-231): > 100000 nM | IC50 [1]: > 100 µM | IC50 (HCT-116): > 100000 nM | IC50 (A549): > 100 µM | IC50 [2]: > 100000 nM

Nc1ncnc2c1ncn2[C@@H]1C(F)=C(CCO)[C@@H](O)[C@H]1O
IC50 (PC-3): > 100 µM | IC50 (Adenosylhomocysteinase): 0.91 µM | IC50 (MDA-MB-231): 6950 nM | IC50 [1]: 8.07 µM | IC50 (HCT-116): 2900 nM | IC50 (A549): 11.7 µM | IC50 [2]: 3730 nM

CNc1ncnc2c1ccn2[C@@H]1C=C(CO)[C@@H](O)[C@H]1O
IC50 (PC-3): > 100 µM | IC50 (Adenosylhomocysteinase): > 100 µM | IC50 (MDA-MB-231): 49500 nM | IC50 [1]: 99.2 µM | IC50 (HCT-116): > 100000 nM | IC50 (A549): > 100 µM | IC50 [2]: > 100000 nM

Nc1ncnc2c1ncn2[C@@H]1C=C(CO)[C@@H](O)[C@H]1O [NEOPLANOCIN A]
IC50 (PC-3): 3.7 µM | IC50 (Adenosylhomocysteinase): 0.47 µM | IC50 (MDA-MB-231): 400 nM | IC50 [1]: 4.5 µM | IC50 (HCT-116): 900 nM | IC50 (A549): 1.22 µM | IC50 [2]: 700 nM

Nc1ncnc2c1ccn2[C@@H]1C=C(CCO)[C@@H](O)[C@H]1O
IC50 (PC-3): > 100 µM | IC50 (Adenosylhomocysteinase): > 100 µM | IC50 (MDA-MB-231): 26300 nM | IC50 [1]: 42.1 µM | IC50 (HCT-116): 32000 nM | IC50 (A549): 34 µM | IC50 [2]: 30200 nM

Nc1nccc2c1ncn2[C@@H]1C=C(CO)[C@@H](O)[C@H]1O
IC50 (PC-3): 9.39 µM | IC50 (MDA-MB-231): 300 nM | IC50 [1]: 0.72 µM | IC50 (HCT-116): 260 nM | IC50 (A549): 1.4 µM | IC50 [2]: 910 nM

Reference: ChEMBL document CHEMBL3580643, “Structure-Activity Relationships of Neplanocin A Analogues as S-Adenosylhomocysteine Hydrolase Inhibitors and Their Antiviral and Antitumor Activities” (J Med Chem, 2015)
